According to ChEMBL document CHEMBL1201862, “PubChem BioAssay data set” (2004):
Active and inactive are the calls of the source.

Experiments:
Beta-galactosidase = Beta-galactosidase (Escherichia coli, UniProt Q8VNN2); assay: Dose response counterscreen for EBI2 assay utilizing the enzyme, b-galactosidase.; assay type: functional
[1] = Luminescence Cell-Based Dose Confirmation HTS to Identify Activators of 5'UTR Stem-Loop Driven Alpha-Synuclein mRNA Translation in H4 Neuroglioblastoma Cells. [Related pubchem assays: 1829 (Project Summary), 1814 (Primary HTS)]; assay type: functional
[2] = Luminescence Cell-Based Dose Response HTS to Identify Activators of Luciferase Translation or Activity in H4 […] Cells. [Related pubchem assays: 1829 (Project Summary), 1814 (Primary HTS)]; assay type: functional
cells [3] = assay type: functional, cell-based
H4 = assay: Luminescence Cell-Based Dose Response HTS to Identify Activators of 5'UTR Stem-Loop Driven Prion Protein mRNA Translation in H4 Neuroglioblastoma Cells. [Related pubchem assays: 1829 (Project Summary), 1814 (Primary HTS)]; assay type: functional; conditions: Homo sapiens
[4] = inhibitors of intracellular T. cruzi replication, confirmation, NIH3T3 host cells, beta-gal luminescence (AID 2044); assay type: functional, cell-based;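 further: intracellular parasites grown in NIH/3T3 mouse fibroblasts as host cells; luminescent beta-galactosidase reporter signal from transgenic T. cruzi replicating inside host cells; inhibitors lower the luminescence signal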
cells [5] = assay type: functional, cell-based; remark: listed apart in the source
[6] = cytotoxicity toward NIH3T3 fibroblasts, dose response, counter-screen, cell-based, ATP luminescence, mouse fibroblasts (AID 2010); assay type: functional;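 further: cells exposed to compound for about 90 hours before reading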
[7] = target: T1, Short transient receptor potential channel 4 (Mus musculus, UniProt Q9QUQ5); assay: mouse TRPC4 channel inhibitors, dose response, cell-based, HEK293 TRPC4/mu-opioid, Fluo-4 calcium (AID 434942); assay type: functional;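 further: potency of inhibitors blocking the TRPC4 calcium response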
T1 sequence (Q9QUQ5 whole entry): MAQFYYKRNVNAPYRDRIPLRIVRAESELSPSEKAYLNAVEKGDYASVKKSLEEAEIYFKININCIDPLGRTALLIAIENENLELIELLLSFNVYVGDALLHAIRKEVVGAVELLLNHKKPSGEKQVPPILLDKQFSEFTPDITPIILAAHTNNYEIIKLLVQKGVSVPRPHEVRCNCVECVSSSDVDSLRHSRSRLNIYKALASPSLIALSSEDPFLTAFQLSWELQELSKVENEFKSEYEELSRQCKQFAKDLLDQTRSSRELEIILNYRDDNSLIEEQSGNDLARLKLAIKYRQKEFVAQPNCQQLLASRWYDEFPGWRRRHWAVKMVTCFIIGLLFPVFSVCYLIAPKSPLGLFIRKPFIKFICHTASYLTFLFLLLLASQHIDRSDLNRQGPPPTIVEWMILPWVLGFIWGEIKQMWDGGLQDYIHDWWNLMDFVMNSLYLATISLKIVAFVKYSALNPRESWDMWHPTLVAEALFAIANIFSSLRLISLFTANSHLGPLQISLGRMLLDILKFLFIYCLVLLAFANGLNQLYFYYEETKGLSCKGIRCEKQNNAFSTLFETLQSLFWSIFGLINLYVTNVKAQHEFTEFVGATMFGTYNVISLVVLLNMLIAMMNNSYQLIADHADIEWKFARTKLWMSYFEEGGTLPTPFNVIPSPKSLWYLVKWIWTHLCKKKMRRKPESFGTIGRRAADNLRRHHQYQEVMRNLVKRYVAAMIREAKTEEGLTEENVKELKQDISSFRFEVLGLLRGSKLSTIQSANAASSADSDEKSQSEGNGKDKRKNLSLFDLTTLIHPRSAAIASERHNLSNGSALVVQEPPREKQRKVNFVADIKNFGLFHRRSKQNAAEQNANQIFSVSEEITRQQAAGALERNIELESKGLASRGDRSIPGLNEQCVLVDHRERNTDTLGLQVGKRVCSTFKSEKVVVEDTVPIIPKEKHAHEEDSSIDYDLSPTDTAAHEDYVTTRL

INS1 = assay: beta cell apoptosis inhibitors, cytokine rescue, dose response, luminescence, retest (AID 449756); assay type: functional, cell-based; conditions: Rattus norvegicus;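 further: cell death triggered by IL-1 beta plus TNF-alpha plus IFN-gamma mixture; protective hits raise ATP signal compared with cytokine alone wells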
[8] = target: DNA (cytosine-5)-methyltransferase 1 (Homo sapiens, UniProt P26358); assay: DNMT1 methyltransferase inhibitors, confirmation, biochemical, fluorescent molecular beacon (AID 602386); assay type: functional
[9] = target: SWI/SNF-related matrix-associated actin-dependent regulator of chromatin subfamily A member 2 (Homo sapiens, UniProt P51531); assay: Luminescence-based cell-based high throughput dose response assay to identify activators of the function of SWI/SNF related, matrix associated, actin dependent regulator of chromatin, subfamily a, member 2 (SMARCA2, BRM).; assay type: functional
Sequence of SWI/SNF-related matrix-associated actin-dependent regulator of chromatin subfamily A member 2 (P51531 whole entry): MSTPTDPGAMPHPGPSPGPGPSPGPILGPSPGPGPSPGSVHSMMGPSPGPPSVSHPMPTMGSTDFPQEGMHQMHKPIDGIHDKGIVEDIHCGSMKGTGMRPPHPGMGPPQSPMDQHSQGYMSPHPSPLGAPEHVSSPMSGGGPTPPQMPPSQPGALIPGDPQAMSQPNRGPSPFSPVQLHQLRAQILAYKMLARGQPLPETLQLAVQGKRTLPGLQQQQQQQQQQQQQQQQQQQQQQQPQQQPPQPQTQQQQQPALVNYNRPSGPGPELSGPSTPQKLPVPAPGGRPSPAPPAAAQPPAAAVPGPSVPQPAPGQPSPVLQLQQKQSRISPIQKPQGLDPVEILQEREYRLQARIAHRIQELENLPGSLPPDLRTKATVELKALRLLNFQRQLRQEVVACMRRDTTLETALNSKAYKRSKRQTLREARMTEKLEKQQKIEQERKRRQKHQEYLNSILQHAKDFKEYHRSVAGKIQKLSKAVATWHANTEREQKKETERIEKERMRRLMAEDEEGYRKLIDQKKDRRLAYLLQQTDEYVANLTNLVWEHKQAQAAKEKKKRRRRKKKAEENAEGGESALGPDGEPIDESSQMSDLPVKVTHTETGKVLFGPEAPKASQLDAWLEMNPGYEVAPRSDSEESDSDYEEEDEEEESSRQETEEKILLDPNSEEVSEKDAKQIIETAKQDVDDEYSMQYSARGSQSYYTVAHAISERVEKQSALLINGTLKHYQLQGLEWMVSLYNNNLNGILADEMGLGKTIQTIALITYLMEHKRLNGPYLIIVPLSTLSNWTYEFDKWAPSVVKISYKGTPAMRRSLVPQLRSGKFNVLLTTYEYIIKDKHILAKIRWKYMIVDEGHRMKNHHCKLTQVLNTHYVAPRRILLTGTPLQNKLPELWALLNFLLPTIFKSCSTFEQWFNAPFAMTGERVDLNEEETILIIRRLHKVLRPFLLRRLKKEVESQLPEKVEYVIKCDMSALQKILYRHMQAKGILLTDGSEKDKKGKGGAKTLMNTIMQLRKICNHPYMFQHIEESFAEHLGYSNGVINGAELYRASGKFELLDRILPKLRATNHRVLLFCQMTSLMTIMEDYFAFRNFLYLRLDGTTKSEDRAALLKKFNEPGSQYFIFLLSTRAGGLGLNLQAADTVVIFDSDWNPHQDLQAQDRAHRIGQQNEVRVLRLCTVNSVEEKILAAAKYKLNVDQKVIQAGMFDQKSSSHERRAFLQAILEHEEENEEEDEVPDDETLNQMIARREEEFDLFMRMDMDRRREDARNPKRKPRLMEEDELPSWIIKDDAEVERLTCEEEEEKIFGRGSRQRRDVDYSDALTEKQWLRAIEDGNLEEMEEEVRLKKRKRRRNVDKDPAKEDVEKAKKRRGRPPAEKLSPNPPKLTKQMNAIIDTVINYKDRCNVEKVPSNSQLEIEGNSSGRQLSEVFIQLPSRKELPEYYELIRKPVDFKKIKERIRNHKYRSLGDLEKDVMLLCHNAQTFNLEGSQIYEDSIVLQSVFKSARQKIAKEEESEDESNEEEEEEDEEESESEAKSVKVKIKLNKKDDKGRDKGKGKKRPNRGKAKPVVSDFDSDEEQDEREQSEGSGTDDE

[10] = Counterscreen for activators of the function of SWI/SNF related, matrix associated, actin dependent regulator of chromatin, subfamily a, member 2 (SMARCA2, BRM): Luminescence-based cell-based high throughput dose response assay to identify non-selective compounds using the VP16 reporter assay.; assay type: functional
[11] = target: T2, Sentrin-specific protease 1 (Homo sapiens, UniProt Q9P0U3); assay: potency of human SENP1 inhibitors, dose response, biochemical, kinetic FRET (AID 651697); assay type: functional; conditions: read-out: IC50_Mean
T2 sequence (Q9P0U3 whole entry): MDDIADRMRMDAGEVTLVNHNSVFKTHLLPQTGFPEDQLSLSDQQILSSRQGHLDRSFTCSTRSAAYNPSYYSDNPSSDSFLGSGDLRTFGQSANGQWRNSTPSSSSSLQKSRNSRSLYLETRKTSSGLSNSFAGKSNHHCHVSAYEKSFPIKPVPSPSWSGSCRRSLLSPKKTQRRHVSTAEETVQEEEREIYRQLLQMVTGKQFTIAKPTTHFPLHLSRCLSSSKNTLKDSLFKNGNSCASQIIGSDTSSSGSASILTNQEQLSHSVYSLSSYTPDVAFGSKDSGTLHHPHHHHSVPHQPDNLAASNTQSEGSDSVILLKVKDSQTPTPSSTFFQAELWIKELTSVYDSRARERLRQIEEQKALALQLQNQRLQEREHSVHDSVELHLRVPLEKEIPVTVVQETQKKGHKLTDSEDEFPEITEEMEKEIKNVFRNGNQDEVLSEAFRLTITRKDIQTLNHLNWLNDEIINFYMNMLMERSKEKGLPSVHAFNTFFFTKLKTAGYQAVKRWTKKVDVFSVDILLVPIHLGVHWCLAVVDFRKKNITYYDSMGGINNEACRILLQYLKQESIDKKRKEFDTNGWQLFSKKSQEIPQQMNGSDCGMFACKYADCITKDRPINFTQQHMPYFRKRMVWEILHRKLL

[12] = target: T2, Sentrin-specific protease 1; assay: Dose response confirmation of small molecule inhibitors of the catalytic domain of the SUMO protease, SENP1 in a FRET assay.; assay type: functional; conditions: read-out: IC50_Mean
[13] = target: Photoreceptor-specific nuclear receptor (Homo sapiens, UniProt Q9Y5X4); assay type: functional, cell-based;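 further: CHO-S cells with Gal4-NCOR and VP16-NR2E3 two-hybrid luciferase reporter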
Sequence of Photoreceptor-specific nuclear receptor (Q9Y5X4 whole entry, the tested form may be a part): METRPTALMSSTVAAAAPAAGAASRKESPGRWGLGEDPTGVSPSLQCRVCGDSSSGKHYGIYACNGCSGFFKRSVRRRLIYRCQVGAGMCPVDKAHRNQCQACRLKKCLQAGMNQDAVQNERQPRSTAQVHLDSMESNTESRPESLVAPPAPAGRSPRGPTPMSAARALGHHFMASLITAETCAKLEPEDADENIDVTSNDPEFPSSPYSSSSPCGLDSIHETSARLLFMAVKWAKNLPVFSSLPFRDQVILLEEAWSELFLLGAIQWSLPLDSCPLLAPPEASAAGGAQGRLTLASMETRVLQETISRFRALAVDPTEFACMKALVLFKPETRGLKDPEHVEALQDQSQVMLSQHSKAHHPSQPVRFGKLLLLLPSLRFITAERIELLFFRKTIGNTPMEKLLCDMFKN

cells [14] = assay type: functional
[15] = target: Low molecular weight phosphotyrosine protein phosphatase (Homo sapiens, UniProt P24666); assay type: functional; conditions: read-out: IC50_Mean;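 further: Dose-response confirmation assay measuring inhibition of LMPTP enzyme activity by fluorescence intensity read-out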
Sequence of Low molecular weight phosphotyrosine protein phosphatase (P24666 whole entry, the tested form may be a part): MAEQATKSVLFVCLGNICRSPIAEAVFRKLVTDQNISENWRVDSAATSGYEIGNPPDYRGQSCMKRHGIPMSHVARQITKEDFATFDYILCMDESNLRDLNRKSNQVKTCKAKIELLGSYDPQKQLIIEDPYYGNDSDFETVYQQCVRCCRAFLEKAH

[16] = target: Hepatocyte nuclear factor 4-alpha (Homo sapiens, UniProt P41235); assay type: functional, cell-based;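 further: biochemical luminescence-based dose-response counterscreen measuring inhibition of HNF4 dimerization, run alongside a screen for blockers of ABHD5–perilipin-5 interaction; split luciferase complementation of HNF4 fusion proteins in cell lysate measuring dimerization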
Sequence of Hepatocyte nuclear factor 4-alpha (P41235 whole entry, the tested form may be a part): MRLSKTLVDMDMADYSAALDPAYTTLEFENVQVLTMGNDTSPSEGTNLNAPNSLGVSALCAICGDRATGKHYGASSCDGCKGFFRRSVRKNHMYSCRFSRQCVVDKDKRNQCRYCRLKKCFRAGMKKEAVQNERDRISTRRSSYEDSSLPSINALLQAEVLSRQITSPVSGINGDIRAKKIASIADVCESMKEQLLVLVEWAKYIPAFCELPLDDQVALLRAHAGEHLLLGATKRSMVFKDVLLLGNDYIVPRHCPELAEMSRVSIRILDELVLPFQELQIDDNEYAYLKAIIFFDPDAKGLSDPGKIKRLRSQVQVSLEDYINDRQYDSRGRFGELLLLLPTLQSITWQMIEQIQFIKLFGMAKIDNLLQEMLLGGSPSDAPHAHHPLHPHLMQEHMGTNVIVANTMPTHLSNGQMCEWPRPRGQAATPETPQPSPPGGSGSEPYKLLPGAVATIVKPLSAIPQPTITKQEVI

[17] = Luminescence Cell-Based Dose Retest to Confirm Inhibitors of Cancer Stem Cells. [Related pubchem assays (depositor defined):AID2717, AID2721]; assay type: functional; conditions: Homo sapiens
CHO = assay: cytotoxicity in TLR9-MyD88 CHO cells, dose response, cytotoxicity control for TLR9-MyD88 binding inhibitor project, cell-based, luminescence (AID 588339); assay type: functional, hamster; conditions: Cricetulus griseus;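 further: CHO cells stably coexpressing TLR9 and MyD88 fusions from primary screen; compound exposure lasted 48 hours before viability readout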
Beta Lactamase = Beta Lactamase (Pseudomonas aeruginosa, UniProt Q932Y6); assay: beta-lactamase reporter inhibitor potency, dose response, artefact control for TLR9-MyD88 binding inhibitor project, BLA reporter cells, FRET fluorescence (AID 588341); assay type: cell-based;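 further: cell based assay in CHO-K1 cells stably expressing beta-lactamase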
Sequence of Beta Lactamase (Q932Y6 whole entry): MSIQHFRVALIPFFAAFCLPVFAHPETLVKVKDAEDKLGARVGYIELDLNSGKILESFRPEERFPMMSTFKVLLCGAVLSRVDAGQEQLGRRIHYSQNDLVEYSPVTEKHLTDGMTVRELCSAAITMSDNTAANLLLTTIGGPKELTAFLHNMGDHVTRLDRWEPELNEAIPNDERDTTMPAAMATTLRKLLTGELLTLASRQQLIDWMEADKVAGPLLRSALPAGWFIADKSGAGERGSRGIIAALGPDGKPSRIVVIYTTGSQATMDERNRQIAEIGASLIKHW

[18] = HEK293T cell cytotoxicity, dose response, cytotoxicity control for HIV Vif inhibitor project, cherry-picks (AID 652208); assay type: functional, cell-based
[19] = target: Voltage-gated inwardly rectifying potassium channel KCNH2 (Homo sapiens, UniProt Q12809); conditions: Potency;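 further: confirmatory quantitative high-throughput screen measuring inhibition of hERG channel activity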
[20] = target: T3, Aryl hydrocarbon receptor (Homo sapiens, UniProt P35869); conditions: Potency;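 further: confirmatory quantitative high-throughput screen measuring activation of the AhR signaling pathway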
T3 sequence (P35869 whole entry): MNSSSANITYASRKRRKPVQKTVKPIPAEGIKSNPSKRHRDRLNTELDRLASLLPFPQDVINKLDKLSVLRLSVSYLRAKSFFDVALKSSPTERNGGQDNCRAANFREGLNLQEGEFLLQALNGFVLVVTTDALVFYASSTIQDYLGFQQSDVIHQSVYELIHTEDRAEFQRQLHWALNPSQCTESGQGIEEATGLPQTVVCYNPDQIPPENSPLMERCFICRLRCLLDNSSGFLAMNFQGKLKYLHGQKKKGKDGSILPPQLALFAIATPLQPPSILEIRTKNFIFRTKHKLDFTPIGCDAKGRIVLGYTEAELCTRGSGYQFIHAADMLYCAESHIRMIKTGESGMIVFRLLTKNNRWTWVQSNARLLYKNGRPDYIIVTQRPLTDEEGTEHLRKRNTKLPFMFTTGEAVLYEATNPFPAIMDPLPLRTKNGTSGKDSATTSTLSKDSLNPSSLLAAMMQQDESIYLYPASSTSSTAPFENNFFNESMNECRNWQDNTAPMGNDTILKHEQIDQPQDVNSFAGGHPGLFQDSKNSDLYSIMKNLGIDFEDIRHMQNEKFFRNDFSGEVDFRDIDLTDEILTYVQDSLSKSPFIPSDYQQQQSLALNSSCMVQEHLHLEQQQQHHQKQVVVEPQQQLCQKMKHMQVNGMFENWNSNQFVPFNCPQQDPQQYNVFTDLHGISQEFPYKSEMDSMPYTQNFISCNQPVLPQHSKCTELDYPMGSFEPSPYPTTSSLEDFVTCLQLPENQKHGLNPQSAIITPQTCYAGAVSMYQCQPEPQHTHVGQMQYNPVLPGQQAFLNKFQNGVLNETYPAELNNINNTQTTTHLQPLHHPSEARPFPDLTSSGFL

[21] = target: Fructose-bisphosphate aldolase (Mycobacterium tuberculosis, UniProt P9WQA3); assay: Fluorescence-based biochemical high throughput dose response assay for inhibitors of the fructose-bisphosphate aldolase (FBA) of M. tuberculosis.; assay type: functional
Sequence of Fructose-bisphosphate aldolase (P9WQA3 whole entry): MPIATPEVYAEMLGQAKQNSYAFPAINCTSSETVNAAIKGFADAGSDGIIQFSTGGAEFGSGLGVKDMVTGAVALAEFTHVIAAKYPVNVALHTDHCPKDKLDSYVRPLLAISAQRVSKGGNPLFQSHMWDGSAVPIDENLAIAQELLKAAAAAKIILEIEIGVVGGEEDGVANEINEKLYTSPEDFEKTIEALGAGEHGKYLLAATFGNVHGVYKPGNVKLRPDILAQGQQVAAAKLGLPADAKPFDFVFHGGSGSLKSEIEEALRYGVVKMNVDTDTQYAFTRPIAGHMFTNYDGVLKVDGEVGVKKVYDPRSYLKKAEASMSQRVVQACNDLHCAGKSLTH

Sequence of Beta-galactosidase (Q8VNN2 whole entry): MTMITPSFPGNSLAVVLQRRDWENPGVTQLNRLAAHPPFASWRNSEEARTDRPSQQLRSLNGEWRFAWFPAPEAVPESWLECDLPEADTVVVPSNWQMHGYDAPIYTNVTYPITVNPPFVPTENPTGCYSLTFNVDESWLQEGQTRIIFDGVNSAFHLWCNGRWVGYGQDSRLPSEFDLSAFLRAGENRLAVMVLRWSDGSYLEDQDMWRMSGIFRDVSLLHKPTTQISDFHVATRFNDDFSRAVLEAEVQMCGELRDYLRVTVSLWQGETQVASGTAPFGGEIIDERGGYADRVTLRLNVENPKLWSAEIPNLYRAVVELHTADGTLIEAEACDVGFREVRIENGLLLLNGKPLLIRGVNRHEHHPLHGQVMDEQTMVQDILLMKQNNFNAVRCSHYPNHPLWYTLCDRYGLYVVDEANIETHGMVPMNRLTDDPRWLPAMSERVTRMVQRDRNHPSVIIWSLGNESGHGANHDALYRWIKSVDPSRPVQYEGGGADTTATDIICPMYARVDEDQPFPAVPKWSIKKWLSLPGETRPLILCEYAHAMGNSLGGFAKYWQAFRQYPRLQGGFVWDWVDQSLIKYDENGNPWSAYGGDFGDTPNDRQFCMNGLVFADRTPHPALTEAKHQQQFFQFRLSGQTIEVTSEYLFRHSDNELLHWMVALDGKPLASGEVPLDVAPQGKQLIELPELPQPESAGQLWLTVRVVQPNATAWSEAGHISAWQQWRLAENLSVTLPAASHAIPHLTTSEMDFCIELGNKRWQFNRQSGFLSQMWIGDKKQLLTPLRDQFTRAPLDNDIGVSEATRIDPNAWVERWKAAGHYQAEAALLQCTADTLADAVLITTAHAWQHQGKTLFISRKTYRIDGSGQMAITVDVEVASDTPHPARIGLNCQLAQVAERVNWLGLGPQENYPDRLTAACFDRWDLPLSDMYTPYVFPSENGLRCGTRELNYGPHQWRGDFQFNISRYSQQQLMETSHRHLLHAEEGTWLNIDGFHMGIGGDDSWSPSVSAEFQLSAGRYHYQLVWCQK

Q: For CCc1cc2cc(C(=O)N3CCN(Cc4ccccc4)CC3)sc2s1, which IC50 (Beta-galactosidase) is on record?
A: Its IC50 is > 80 µM (inactive).

Q: Which results are given for CCN(CC)CCn1c2ccccc2c2cnc(N)c(C#N)c21?
A: EC50 [1]: 10.2 µM (active); EC50 [2]: 21 µM (active); EC50 (cells [3]): > 350 µM (not active); EC50 (H4): > 120 µM (not active); EC50 [4]: 1.21 µM (active); EC50 (cells [5]): > 350 µM (not active); EC50 [6]: 9.47 µM (active); EC50 [7]: 4.73 µM (active); AC50 (INS1): 3.09 µM (active); IC50 [8]: > 99 µM (inactive); EC50 [9]: > 3.38 µM (active); EC50 [10]: > 91.2 µM (inactive)

Q: For CCOc1cccc(/C=C2\NC(=S)N(c3ccccc3)C2=O)c1O, which IC50 [11] is on record?
A: Its IC50 is 80 µM (inactive).

Q: And the IC50 [12]?
A: Its IC50 is 20 µM (inactive).

Q: With COc1ccc(NC(=O)c2sc(=O)n(Cc3ccc(F)c(Cl)c3)c2C)cc1OC as the compound, how does the IC50 [13] read?
A: The IC50 was 8.01 µM (active).

Q: With CCn1cc(C(=O)O)c(=O)c2cc(F)c(N3CCN(C(=S)NC(=O)c4ccccc4)CC3)cc21 as the compound, how does the IC50 (cells [14]) read?
A: Its IC50 is 42.6 µM (active).

Q: And the IC50 [15]?
A: The IC50 was 15.4 µM (active).

Q: For COc1ccc(C(C(=O)Nc2ccc3c(c2)OCCO3)n2c(=O)c(-c3ccco3)nc3ccccc32)cc1 (configuration not stated), which IC50 [16] is on record?
A: Its IC50 is 12.5 µM (inactive).

Q: Which IC50 [16] does the source give for CCCCCCC=C1CCC(CN2CCCC2)C1=O (configuration not stated) here?
A: Its IC50 is 2.25 µM (active).

Q: What does the source list for COc1ccc(-c2nc3cnccn3c2NC2CCCCC2)cc1-c1cccc(Cl)c1?
A: AC50 [17]: 4.23 µM (active); IC50 (CHO): 25.4 µM (inactive); IC50 (Beta Lactamase): 6.78 µM (active); AC50 [18]: 39.2 µM (active)

Q: With [O-]/[N+](=N/c1ccccc1)c1ccccc1 as the compound, how does the AC50 [19] read?
A: Its AC50 is 50.1 µM (inconclusive).

Q: And the AC50 [20]?
A: The AC50 was 56.2 µM (inconclusive).

Q: With Cc1ccc(-c2cc(C(=O)O)c3cc(Br)ccc3n2)s1 as the compound, how does the IC50 [21] read?
A: The IC50 was > 1.11 µM (active).
